Experimental data published in patent publication US20240423925A1, “GRANULE COMPRISING ENCAPSULATED ACTIVE INGREDIENTS” (DSM IP ASSETS B.V., priority 2021, published 2024).

Assay: Differential scanning calorimetry (DSC) of sorbitol grades
Format: physicochemical
Conditions: sorbitol grades used as binder
Experimental: Different grades of sorbitol were then investigated in order to further reduce the energy required to generate good water soluble granules. Samples were analyzed via differential scanning calorimetry (DSC) in order to determine the sorbitol grade with the lowest melt energy. When using sorbitol grade Xtab300S (available at Roquette®) as a binder, the energy required to generate good water-soluble granules is lower than the other grades (cf. Table below).
For `OC[C@@H](O)[C@@H](O)[C@H](O)[C@@H](O)CO` [Example P100C, sorbitol], the “Melt Energy” value was 181.9 J/g.
With `OC[C@@H](O)[C@@H](O)[C@H](O)[C@@H](O)CO` [Example P300C, sorbitol] the “Melt Energy” value was 180.3 J/g.
With `OC[C@@H](O)[C@@H](O)[C@H](O)[C@@H](O)CO` [Example P550SD, sorbitol] the “Melt Energy” value was 165.1 J/g.
With `OC[C@@H](O)[C@@H](O)[C@H](O)[C@@H](O)CO` [Example P650C, sorbitol] the “Melt Energy” value was 174.9 J/g.
For `OC[C@@H](O)[C@@H](O)[C@H](O)[C@@H](O)CO` [Xtab200S, sorbitol], the “Melt Energy” value was 161.7 J/g.
In the case of `OC[C@@H](O)[C@@H](O)[C@H](O)[C@@H](O)CO` [Xtab300S, sorbitol], the “Melt Energy” value is reported as 126.5 J/g.
